# Measurements reported in patent US20250268840A1, “USE OF NANO-CARRIERS FOR DELIVERY OF ACTIVE AGENTS” (LANDA LABS (2012) LTD., priority 2022, published 2025).
# Experiments:
# [1] = Thermo-rheometer viscosity of WITC (PCL), unplasticized or blended with plasticizing agents / premixes; type: physicochemical
# Description: Thermo-rheometer: Thermo Scientific (Germany) Haake Mars III, with a C20/1° spindle, a gap of 0.052 mm, and a shear rate of 10 sec^−1. […]
# Samples corresponding to the above-described premixes were additionally tested for their viscosity at the end of the mixing step, when the WITCs were at least homogeneously blended with the polar-carrier-insoluble materials, and in most case plasticized by the non-volatile liquids if present. Viscosity was determined as previously described at a shear rate of 10 sec^−1 over a range of temperatures between 20° C. and 80° C., and for all samples so tested the viscosity as measured at 50° C. was typically found to be of less than 10^6 mPa·s, being generally between 10^3 mPa·s and 10^5 mPa·s, often not exceeding 5×10^4 mPa·s, and many samples even having a viscosity of less 10^4 mPa·s.
# In a first series of experiments, the viscosity was measured on blends of materials forming a homogeneous mass adapted for nano-sizing by the present methods. PCL and a non-volatile liquid or a fatty amine serving as SFA at various weight per weight ratios were combined in a glass vial and the sealed vials were placed in an oven pre-heated to 80° C. The PCL: non-volatile liquid ratios tested were 1:1 and 1:2.33 and the PCL: fatty amine ratios tested were 1:0.1, 1:0.33, 1:0.5 and 1:1. Following 1 hour of incubation under heat, the contents of the vials were mixed by hand for about 30 seconds, until clear solutions were obtained. The samples were allowed to cool down overnight (i.e., at least 12 hours) at room temperature so as to solidify.
# Solid samples were then transferred to a rheometer where their respective viscosity was measured as a function of temperature between room temperature and 70° C. at a ramping up temperature of 10° C./min. The viscosities (or 2nd viscosities) of the samples as measured at 50° C. and 70° C. are summarized in Table 2-II(A), including in the first row the first viscosities of a reference sample made of PCL alone, unplasticized, under same conditions.
# [2] = Pharmacokinetic study of tadalafil in plasma after oral administration; type: in vivo, rats (Sprague Dawley); conditions: rats
# Description: The following pharmacokinetic (PK) study was conducted to determine the efficacy of a composition according to the present teachings, following its oral administration to rats.
# Nine young adult healthy rats (Sprague Dawley), having an initial mean body weight of about 243.1 +1.8 g, were used in this study. They were individually tail marked and housed within a limited access caged rodent facility. The rats were randomly divided into groups of 3, and were kept with their groups in cages, in a controlled environment at a temperature of 17-23° C., with a relative humidity (RH) of 30-70%, a 12:12 hour light:dark cycle and 15 air changes/h in the study room. […]
# Nano-dispersion ND39, as listed in Table 5-II, was used as the tested composition. ND39 contains tadalafil as the polar-carrier insoluble active agent present in the core of the nano-elements, and its concentration in the rats' blood was monitored. […]
# The plasma samples were combined with acetone, allowing the dissolution of the nano-elements and making the tadalafil available for measuring, followed by centrifugation whereby plasma proteins were precipitated. The obtained supernatant was removed and analyzed by LC-MS/MS vs. a tadalafil calibration curve prepared in advance, in the range of 1 ng/ml to 10 ug/ml. […]
# [3] = PCL:plasticizing agent w/w ratio 1:1
# [4] = PCL:plasticizing agent w/w ratio 1:0.33
# [5] = PCL:plasticizing agent w/w ratio 1:0.5
# [6] = PCL:plasticizing agent w/w ratio 1:2.33
smiles,measurement,setting,value
CCCCCCCCN(CCCCCCCC)CCCCCCCC [Trioctyl amine],PCL 2nd viscosity at 50° C. [mPa · s],[1]; [3],544 mPa · s
same,PCL 2nd viscosity at 70° C. [mPa · s],[1]; [3],279 mPa · s
CCCCCCCC/C=C\CCCCCCCCN [Oleyl amine],PCL 2nd viscosity at 50° C. [mPa · s],[1]; [4],1.9 × 10^3 mPa · s
same,PCL 2nd viscosity at 70° C. [mPa · s],[1]; [4],1.7 × 10^3 mPa · s
same,PCL 2nd viscosity at 50° C. [mPa · s],[1]; [5],6.7 × 10^3 mPa · s
same,PCL 2nd viscosity at 70° C. [mPa · s],[1]; [5],4.4 × 10^3 mPa · s
"CCCCOC(=O)CCCCC(=O)OCCCC [Cetiol ® B, Dibutyl adipate]",PCL 2nd viscosity at 50° C. [mPa · s],[1]; [3],5.0 × 10^3 mPa · s
same,PCL 2nd viscosity at 70° C. [mPa · s],[1]; [3],2.2 × 10^3 mPa · s
same,PCL 2nd viscosity at 50° C. [mPa · s],[1]; [6],215 mPa · s
same,PCL 2nd viscosity at 70° C. [mPa · s],[1]; [6],164 mPa · s
"CN1CC(=O)N2[C@H](c3ccc4c(c3)OCO4)c3[nH]c4ccccc4c3C[C@@H]2C1=O [Ref. T, Tadalafil]","% CV of plasma tadalafil concentration, average for all time points",[2]; 3 animals per time point,31.1%
same,AUC0-∞/D (area under curve zero to infinity normalized to dose of tadalafil),"[2]; ND39 about 16 mg/kg, Ref. C about 18.7 mg/kg, Ref. T about 18.1 mg/kg","about 1,249 h.mg/ml"
